In US20150094474A1, “AGRICULTURAL CHEMICALS” (Redx Pharma Ltd., priority 2012, published 2015):

Assays:
peas = test: Herbicidal bioassay, peas (% necrosis); format: in vivo
Method: (§1) A laboratory bioassay was conducted to screen ten compounds (Fluazifop (25); Ethyl fluazifop (62); five fluazifop analogues: 27, 28, 63, 64 and 65; mesofulfuron (6); and two mesosulfuron analogues: 8 and 61. for activity against Lolium perenne, barley, peas and Chinese cabbage. Compounds were diluted in DMSO. Controls were performed using both DMSO and water.
(§2) Plants were obtained as seeds and were grown to the 2-4 true leaf stage. Plants were grown individually in seed trays. Each plant (in an approximately 3 cm diameter plug) was then detached from the tray for spraying. Environmental conditions were closely monitored and recorded and were within the optimal range of the target species.
(§3) The compounds were screened at a range of six concentrations, eg. 0.05%, 0.01%, 0.005%, 0.001%, 0.0005% and 0.0001%. Treatments will be applied directly onto the plants, using a potter tower.
(§4) One plant of each type will be sprayed using a potter tower. The 4 different types of weeds will be placed in a 10 cm diameter area underneath the potter sprayer and sprayed simultaneously. The growth of the plants and any Phytotoxicity effects will then be assessed at specified growth intervals, according to EPPO guideline PP1/135. Five replicates will be performed for each treatment, for each species.

barley = test: Herbicidal bioassay, barley (% necrosis); format: in vivo
Method: as §1, §2, §3, §4

SMILES: COC(=O)c1ccc(CNS(C)(=O)=O)cc1S(=O)(=O)NC(=O)Nc1nc(OC)cc(OC)n1 [Mesosulfuron (6), Mesosulfuron methyl ester, reference compound]
- Sum of % necrosis in Pea (peas; Dose 0.000001, Day 0): C (less than 50% necrosis)
- Sum of % necrosis in Pea (peas; Dose 0.000001, Day 1): C (less than 50% necrosis)
- Sum of % necrosis in Pea (peas; Dose 0.000001, Day 3): A (over 80% necrosis)
- Sum of % necrosis in Pea (peas; Dose 0.000001, Day 7): A (over 80% necrosis)
- Sum of % necrosis in Pea (peas; Dose 0.000001, Day 10): A (over 80% necrosis)
- Sum of % necrosis in Pea (peas; Dose 0.000001, Day 14): A (over 80% necrosis)
- Sum of % necrosis in Pea (peas; Dose 0.000005, Day 0): C (less than 50% necrosis)
- Sum of % necrosis in Pea (peas; Dose 0.000005, Day 1): C (less than 50% necrosis)
- Sum of % necrosis in Pea (peas; Dose 0.000005, Day 3): B (50%-80% necrosis)
- Sum of % necrosis in Pea (peas; Dose 0.000005, Day 7): A (over 80% necrosis)
- Sum of % necrosis in Pea (peas; Dose 0.000005, Day 10): A (over 80% necrosis)
- Sum of % necrosis in Pea (peas; Dose 0.000005, Day 14): A (over 80% necrosis)
- Sum of % necrosis in Pea (peas; Dose 0.00001, Day 0): C (less than 50% necrosis)
- Sum of % necrosis in Pea (peas; Dose 0.00001, Day 1): C (less than 50% necrosis)
- Sum of % necrosis in Pea (peas; Dose 0.00001, Day 3): A (over 80% necrosis)
- Sum of % necrosis in Pea (peas; Dose 0.00001, Day 7): A (over 80% necrosis)
- Sum of % necrosis in Pea (peas; Dose 0.00001, Day 10): A (over 80% necrosis)
- Sum of % necrosis in Pea (peas; Dose 0.00001, Day 14): A (over 80% necrosis)
- Sum of % necrosis in Pea (peas; Dose 0.00005, Day 0): C (less than 50% necrosis)
- Sum of % necrosis in Pea (peas; Dose 0.00005, Day 1): C (less than 50% necrosis)
- Sum of % necrosis in Pea (peas; Dose 0.00005, Day 3): B (50%-80% necrosis)
- Sum of % necrosis in Pea (peas; Dose 0.00005, Day 7): A (over 80% necrosis)
- Sum of % necrosis in Pea (peas; Dose 0.00005, Day 10): A (over 80% necrosis)
- Sum of % necrosis in Pea (peas; Dose 0.00005, Day 14): A (over 80% necrosis)
- Sum of % necrosis in Pea (peas; Dose 0.0001, Day 0): C (less than 50% necrosis)
- Sum of % necrosis in Pea (peas; Dose 0.0001, Day 1): C (less than 50% necrosis)
- Sum of % necrosis in Pea (peas; Dose 0.0001, Day 3): A (over 80% necrosis)
- Sum of % necrosis in Pea (peas; Dose 0.0001, Day 7): A (over 80% necrosis)
- Sum of % necrosis in Pea (peas; Dose 0.0001, Day 10): A (over 80% necrosis)
- Sum of % necrosis in Pea (peas; Dose 0.0001, Day 14): A (over 80% necrosis)
- Sum of % necrosis in Pea (peas; Dose 0.0005, Day 0): C (less than 50% necrosis)
- Sum of % necrosis in Pea (peas; Dose 0.0005, Day 1): C (less than 50% necrosis)
- Sum of % necrosis in Pea (peas; Dose 0.0005, Day 3): C (less than 50% necrosis)
- Sum of % necrosis in Pea (peas; Dose 0.0005, Day 7): A (over 80% necrosis)
- Sum of % necrosis in Pea (peas; Dose 0.0005, Day 10): A (over 80% necrosis)
- Sum of % necrosis in Pea (peas; Dose 0.0005, Day 14): A (over 80% necrosis)
- Sum of % necrosis in barley (barley; Dose 0.000001, Day 0): C (less than 50% necrosis)
- Sum of % necrosis in barley (barley; Dose 0.000001, Day 1): C (less than 50% necrosis)
- Sum of % necrosis in barley (barley; Dose 0.000001, Day 3): C (less than 50% necrosis)
- Sum of % necrosis in barley (barley; Dose 0.000001, Day 7): C (less than 50% necrosis)
- Sum of % necrosis in barley (barley; Dose 0.000001, Day 10): C (less than 50% necrosis)
- Sum of % necrosis in barley (barley; Dose 0.000001, Day 14): C (less than 50% necrosis)
- Sum of % necrosis in barley (barley; Dose 0.000005, Day 0): C (less than 50% necrosis)
- Sum of % necrosis in barley (barley; Dose 0.000005, Day 1): C (less than 50% necrosis)
- Sum of % necrosis in barley (barley; Dose 0.000005, Day 3): C (less than 50% necrosis)
- Sum of % necrosis in barley (barley; Dose 0.000005, Day 7): C (less than 50% necrosis)
- Sum of % necrosis in barley (barley; Dose 0.000005, Day 10): C (less than 50% necrosis)
- Sum of % necrosis in barley (barley; Dose 0.000005, Day 14): C (less than 50% necrosis)
- Sum of % necrosis in barley (barley; Dose 0.00001, Day 0): C (less than 50% necrosis)
- Sum of % necrosis in barley (barley; Dose 0.00001, Day 1): C (less than 50% necrosis)
- Sum of % necrosis in barley (barley; Dose 0.00001, Day 3): C (less than 50% necrosis)
- Sum of % necrosis in barley (barley; Dose 0.00001, Day 7): C (less than 50% necrosis)
- Sum of % necrosis in barley (barley; Dose 0.00001, Day 10): C (less than 50% necrosis)
- Sum of % necrosis in barley (barley; Dose 0.00001, Day 14): C (less than 50% necrosis)
- Sum of % necrosis in barley (barley; Dose 0.00005, Day 0): C (less than 50% necrosis)
- Sum of % necrosis in barley (barley; Dose 0.00005, Day 1): C (less than 50% necrosis)
- Sum of % necrosis in barley (barley; Dose 0.00005, Day 3): C (less than 50% necrosis)
- Sum of % necrosis in barley (barley; Dose 0.00005, Day 7): C (less than 50% necrosis)
- Sum of % necrosis in barley (barley; Dose 0.00005, Day 10): C (less than 50% necrosis)
- Sum of % necrosis in barley (barley; Dose 0.00005, Day 14): C (less than 50% necrosis)
- Sum of % necrosis in barley (barley; Dose 0.0001, Day 0): C (less than 50% necrosis)
- Sum of % necrosis in barley (barley; Dose 0.0001, Day 1): C (less than 50% necrosis)
- Sum of % necrosis in barley (barley; Dose 0.0001, Day 3): C (less than 50% necrosis)
- Sum of % necrosis in barley (barley; Dose 0.0001, Day 7): C (less than 50% necrosis)
- Sum of % necrosis in barley (barley; Dose 0.0001, Day 10): B (50%-80% necrosis)
- Sum of % necrosis in barley (barley; Dose 0.0001, Day 14): B (50%-80% necrosis)
- Sum of % necrosis in barley (barley; Dose 0.0005, Day 0): C (less than 50% necrosis)
- Sum of % necrosis in barley (barley; Dose 0.0005, Day 1): C (less than 50% necrosis)
- Sum of % necrosis in barley (barley; Dose 0.0005, Day 3): C (less than 50% necrosis)
- Sum of % necrosis in barley (barley; Dose 0.0005, Day 7): C (less than 50% necrosis)
- Sum of % necrosis in barley (barley; Dose 0.0005, Day 10): B (50%-80% necrosis)
- Sum of % necrosis in barley (barley; Dose 0.0005, Day 14): B (50%-80% necrosis)
